# Calls of active or inactive are those of the source.
# What was measured:
# [1] = target: Photoreceptor-specific nuclear receptor (Homo sapiens, UniProt Q9Y5X4); assay: ligands suppressing NR2E3 nuclear receptor activity – biochemical, TR-FRET, dose response (AID 463256); assay type: functional
# [2] = target: Peroxisome proliferator-activated receptor gamma/Nuclear receptor corepressor 2 (Homo sapiens, UniProt P37231+Q9Y618); assay: Counterscreen for NR2E3 inverse agonists: TR-FRET-based biochemical high throughput dose response assay to identify inverse agonists of the interaction between peroxisome proliferator-activated receptor gamma (PPARg) and nuclear receptor co-repressor 2 (NCOR2).; assay type: functional
# [3] = target: T1, Tyrosine-protein phosphatase non-receptor type 7 (Homo sapiens, UniProt P35236); assay: HePTP tyrosine phosphatase activity blockers – biochemical, absorbance, leukemia target, primary screen (AID 521); assay type: functional
# T1 sequence (P35236 whole entry): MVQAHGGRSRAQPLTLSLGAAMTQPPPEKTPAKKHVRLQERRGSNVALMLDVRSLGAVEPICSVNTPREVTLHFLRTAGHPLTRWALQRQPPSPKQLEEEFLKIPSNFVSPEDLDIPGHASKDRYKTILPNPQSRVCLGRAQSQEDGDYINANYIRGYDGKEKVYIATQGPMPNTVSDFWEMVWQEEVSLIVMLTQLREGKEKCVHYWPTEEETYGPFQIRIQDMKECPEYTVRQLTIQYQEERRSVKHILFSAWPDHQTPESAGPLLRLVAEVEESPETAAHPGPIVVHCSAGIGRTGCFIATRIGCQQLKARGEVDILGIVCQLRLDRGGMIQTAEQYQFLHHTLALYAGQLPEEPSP
# Protein RecA = target: T2, Protein RecA (Mycobacterium tuberculosis, UniProt P9WHJ3); assay: Fluorescence Cell-Free Homogeneous Dose Retest to Identify Inhibitors of RecA-Intein Splicing Activity. [Related pubchem assays (depositor defined):AID2097, AID2223, AID489010, AID492950]; assay type: functional
# T2 sequence (P9WHJ3 whole entry): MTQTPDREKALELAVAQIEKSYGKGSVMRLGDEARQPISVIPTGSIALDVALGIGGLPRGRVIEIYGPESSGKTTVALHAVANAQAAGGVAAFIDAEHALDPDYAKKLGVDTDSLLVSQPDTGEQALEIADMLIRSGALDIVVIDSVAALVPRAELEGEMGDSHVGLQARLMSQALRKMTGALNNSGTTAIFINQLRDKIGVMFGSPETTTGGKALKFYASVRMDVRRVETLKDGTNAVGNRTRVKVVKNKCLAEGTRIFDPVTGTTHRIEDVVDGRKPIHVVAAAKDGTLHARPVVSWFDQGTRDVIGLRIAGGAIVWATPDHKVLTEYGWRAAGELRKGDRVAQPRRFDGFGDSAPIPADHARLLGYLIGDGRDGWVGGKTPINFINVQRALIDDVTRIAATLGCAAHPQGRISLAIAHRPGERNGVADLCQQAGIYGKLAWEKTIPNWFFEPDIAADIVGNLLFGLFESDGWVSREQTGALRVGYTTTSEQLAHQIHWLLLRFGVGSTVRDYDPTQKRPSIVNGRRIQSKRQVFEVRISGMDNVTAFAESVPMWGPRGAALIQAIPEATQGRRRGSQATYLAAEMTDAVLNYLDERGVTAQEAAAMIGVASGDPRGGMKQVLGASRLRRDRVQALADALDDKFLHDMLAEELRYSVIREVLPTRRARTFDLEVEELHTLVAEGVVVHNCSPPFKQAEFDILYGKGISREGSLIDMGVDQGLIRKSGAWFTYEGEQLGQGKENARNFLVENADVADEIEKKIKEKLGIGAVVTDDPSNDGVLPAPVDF
# Leucine aminopeptidase = target: T3, Leucine aminopeptidase (Plasmodium falciparum 3D7, UniProt Q8IL11); assay: P. falciparum M17LAP inhibitors, primary screen, biochemical, fluorogenic H-Leu-NHMec substrate, 1536-well (AID 1619); assay type: functional
# T3 sequence (Q8IL11 whole entry): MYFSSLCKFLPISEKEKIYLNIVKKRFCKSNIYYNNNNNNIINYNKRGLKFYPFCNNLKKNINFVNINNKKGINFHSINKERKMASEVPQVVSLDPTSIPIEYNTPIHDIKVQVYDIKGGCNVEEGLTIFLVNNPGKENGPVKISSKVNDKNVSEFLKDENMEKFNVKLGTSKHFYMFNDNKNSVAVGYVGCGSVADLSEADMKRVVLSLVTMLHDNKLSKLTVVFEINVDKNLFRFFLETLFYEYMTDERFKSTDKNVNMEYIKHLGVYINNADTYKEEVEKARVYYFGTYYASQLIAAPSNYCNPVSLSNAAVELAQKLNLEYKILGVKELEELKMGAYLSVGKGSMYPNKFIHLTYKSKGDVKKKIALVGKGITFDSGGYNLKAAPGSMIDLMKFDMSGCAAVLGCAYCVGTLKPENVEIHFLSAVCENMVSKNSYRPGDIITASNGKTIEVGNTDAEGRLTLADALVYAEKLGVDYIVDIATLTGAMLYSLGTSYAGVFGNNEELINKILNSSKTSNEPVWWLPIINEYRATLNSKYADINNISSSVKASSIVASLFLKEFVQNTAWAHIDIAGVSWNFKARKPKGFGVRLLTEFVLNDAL
# Procathepsin L = Procathepsin L (Homo sapiens, UniProt P07711); assay: CTSL1 protease inhibition – biochemical, QFRET, 1536-well, counter-screen for M1/M17 aminopeptidase inhibitor project, dose response (AID 2214)
# Chain of Procathepsin L (P07711 whole entry): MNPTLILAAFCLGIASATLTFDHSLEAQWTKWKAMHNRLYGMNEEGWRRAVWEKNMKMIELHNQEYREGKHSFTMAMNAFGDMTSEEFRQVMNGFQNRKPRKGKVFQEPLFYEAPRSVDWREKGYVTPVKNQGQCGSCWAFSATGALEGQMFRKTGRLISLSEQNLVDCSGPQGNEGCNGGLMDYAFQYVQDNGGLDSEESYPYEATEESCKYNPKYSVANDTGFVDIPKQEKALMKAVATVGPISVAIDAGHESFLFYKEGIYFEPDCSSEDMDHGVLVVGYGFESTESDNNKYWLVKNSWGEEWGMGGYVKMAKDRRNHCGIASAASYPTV
# Aspartyl aminopeptidase = Aspartyl aminopeptidase (Plasmodium falciparum 3D7, UniProt Q8I2J3); assay: Counterscreen for inhibitors of M1 and M17 aminopeptidases: QFRET-based biochemical high throughput dose response assay for inhibitors of the Plasmodium falciparum M18 Aspartyl Aminopeptidase (PFM18AAP). [Related PubChem assays: 1619 (Screening assay (M17LAP inhibitors).), 1445 (Screening assay (M1AAP inhibitors).)]
# Chain of Aspartyl aminopeptidase (Q8I2J3 whole entry): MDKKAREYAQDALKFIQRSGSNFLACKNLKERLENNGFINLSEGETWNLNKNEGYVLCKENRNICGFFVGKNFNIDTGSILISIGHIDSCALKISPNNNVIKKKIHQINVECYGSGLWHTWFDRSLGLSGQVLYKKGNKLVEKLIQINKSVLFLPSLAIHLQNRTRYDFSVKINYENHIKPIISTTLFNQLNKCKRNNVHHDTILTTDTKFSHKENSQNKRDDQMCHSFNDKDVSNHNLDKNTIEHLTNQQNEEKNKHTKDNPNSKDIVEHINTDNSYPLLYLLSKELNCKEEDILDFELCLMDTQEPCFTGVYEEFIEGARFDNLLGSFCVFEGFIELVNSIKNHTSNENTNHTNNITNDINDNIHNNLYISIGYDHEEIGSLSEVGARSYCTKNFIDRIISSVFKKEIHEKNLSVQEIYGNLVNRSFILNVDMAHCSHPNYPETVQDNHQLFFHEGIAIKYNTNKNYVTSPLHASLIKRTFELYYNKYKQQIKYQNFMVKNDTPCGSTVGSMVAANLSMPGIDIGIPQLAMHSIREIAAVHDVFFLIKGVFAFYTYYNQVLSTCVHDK
# [4] = target: T4, Replicative DNA helicase DnaB (Mycobacterium tuberculosis, UniProt P9WMR3); assay: DnaB intein splicing inhibitors, dose response, biochemical, cell-free fluorescence (AID 449749); assay type: functional
# T4 sequence (P9WMR3 whole entry): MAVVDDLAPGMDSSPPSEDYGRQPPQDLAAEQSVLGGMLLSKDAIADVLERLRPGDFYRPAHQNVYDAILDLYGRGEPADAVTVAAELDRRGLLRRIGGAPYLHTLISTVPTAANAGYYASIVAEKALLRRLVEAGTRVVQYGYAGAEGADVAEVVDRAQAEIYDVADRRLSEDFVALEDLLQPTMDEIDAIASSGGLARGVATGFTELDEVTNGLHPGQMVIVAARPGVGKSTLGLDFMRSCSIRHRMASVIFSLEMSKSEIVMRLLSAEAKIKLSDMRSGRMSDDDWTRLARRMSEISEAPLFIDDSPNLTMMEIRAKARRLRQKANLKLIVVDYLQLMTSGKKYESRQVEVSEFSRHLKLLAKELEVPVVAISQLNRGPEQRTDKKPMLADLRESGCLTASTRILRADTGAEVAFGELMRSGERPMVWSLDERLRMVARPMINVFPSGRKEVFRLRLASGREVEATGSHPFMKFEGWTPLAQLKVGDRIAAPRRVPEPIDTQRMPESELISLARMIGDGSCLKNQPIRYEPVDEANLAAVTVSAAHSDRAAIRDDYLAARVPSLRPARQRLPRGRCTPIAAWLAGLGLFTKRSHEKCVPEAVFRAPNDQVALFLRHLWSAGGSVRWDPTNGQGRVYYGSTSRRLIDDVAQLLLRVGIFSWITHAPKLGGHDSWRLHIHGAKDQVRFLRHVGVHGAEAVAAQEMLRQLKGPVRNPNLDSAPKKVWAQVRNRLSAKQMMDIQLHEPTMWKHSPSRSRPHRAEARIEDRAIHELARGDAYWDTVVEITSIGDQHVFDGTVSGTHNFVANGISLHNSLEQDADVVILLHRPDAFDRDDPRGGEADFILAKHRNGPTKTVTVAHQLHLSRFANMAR
# Cytochrome P450 2C19 = Cytochrome P450 2C19 (Homo sapiens, UniProt P33261); assay: qHTS Assay for Inhibitors and Substrates of Cytochrome P450 2C19. [Related pubchem assays: 410 ]; assay type: ADME; conditions: read-out: Potency
# Chain of Cytochrome P450 2C19 (P33261 whole entry): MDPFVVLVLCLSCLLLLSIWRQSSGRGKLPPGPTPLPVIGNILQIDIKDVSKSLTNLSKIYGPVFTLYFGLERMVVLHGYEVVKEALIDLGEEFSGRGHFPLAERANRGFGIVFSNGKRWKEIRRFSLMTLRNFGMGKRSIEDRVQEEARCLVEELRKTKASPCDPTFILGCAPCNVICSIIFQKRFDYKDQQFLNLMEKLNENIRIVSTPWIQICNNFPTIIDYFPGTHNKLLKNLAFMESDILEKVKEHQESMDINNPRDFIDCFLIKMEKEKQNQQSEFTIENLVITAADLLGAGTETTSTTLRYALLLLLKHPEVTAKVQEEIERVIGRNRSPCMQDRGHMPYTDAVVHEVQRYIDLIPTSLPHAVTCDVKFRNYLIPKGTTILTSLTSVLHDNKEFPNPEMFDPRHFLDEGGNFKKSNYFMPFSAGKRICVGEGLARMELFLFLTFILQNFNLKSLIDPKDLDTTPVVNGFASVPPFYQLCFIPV
# Cytochrome P450 3A4 = Cytochrome P450 3A4 (Homo sapiens, UniProt P08684); conditions: Potency;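 also: confirmatory qHTS run detecting inhibitors and substrates of CYP3A4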
# Chain of Cytochrome P450 3A4 (P08684 whole entry): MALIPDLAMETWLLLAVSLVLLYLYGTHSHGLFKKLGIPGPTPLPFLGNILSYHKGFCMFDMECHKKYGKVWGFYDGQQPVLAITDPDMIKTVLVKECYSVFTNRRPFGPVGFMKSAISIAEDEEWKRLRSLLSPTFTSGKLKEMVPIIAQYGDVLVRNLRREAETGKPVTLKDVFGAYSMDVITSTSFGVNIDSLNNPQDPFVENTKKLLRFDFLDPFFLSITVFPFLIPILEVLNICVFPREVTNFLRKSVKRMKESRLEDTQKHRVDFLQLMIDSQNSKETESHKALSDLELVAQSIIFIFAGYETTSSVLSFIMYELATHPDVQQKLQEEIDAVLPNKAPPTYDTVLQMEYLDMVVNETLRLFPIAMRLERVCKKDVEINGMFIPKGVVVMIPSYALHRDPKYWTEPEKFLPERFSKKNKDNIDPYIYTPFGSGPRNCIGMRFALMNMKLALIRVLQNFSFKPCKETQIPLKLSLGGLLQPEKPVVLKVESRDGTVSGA
# [5] = Counterscreen for activators of the function of SWI/SNF related, matrix associated, actin dependent regulator of chromatin, subfamily a, member 2 (SMARCA2, BRM): Luminescence-based cell-based high throughput dose response assay to identify non-selective compounds using the VP16 reporter assay.; assay type: functional
# [6] = target: T5, Probable nicotinate-nucleotide adenylyltransferase (Staphylococcus aureus (strain N315), UniProt P65502); assay type: functional, Staphylococcus aureus subsp. aureus N315;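 as to IC50 Mean: confirmatory dose-response retesting of NadD inhibitor hits first found in an ultra-high-throughput screen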
# T5 sequence (P65502 whole entry): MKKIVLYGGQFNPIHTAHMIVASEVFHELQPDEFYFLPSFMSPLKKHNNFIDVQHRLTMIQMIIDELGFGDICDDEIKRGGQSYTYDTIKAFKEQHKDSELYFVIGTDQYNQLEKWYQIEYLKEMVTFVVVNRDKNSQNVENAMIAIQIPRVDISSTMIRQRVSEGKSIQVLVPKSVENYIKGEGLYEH
# [7] = target: T5, Probable nicotinate-nucleotide adenylyltransferase; assay type: functional, Staphylococcus aureus subsp. aureus N315; conditions: read-out: IC50_Mean
# [8] = target: SWI/SNF-related matrix-associated actin-dependent regulator of chromatin subfamily A member 2 (Homo sapiens, UniProt P51531); assay: Luminescence-based cell-based high throughput dose response assay to identify activators of the function of SWI/SNF related, matrix associated, actin dependent regulator of chromatin, subfamily a, member 2 (SMARCA2, BRM).; assay type: functional
# Vero = assay: viability of Vero cells under compound – cytotoxicity control for flavivirus capping enzyme inhibitors (AID 588742); assay type: functional; conditions: Chlorocebus sabaeus
# [9] = target: Voltage-gated inwardly rectifying potassium channel KCNH2 (Homo sapiens, UniProt Q12809); assay: concentration-dependent hERG rescue from blockers – cell-based, thallium flux, dose response (AID 2121); assay type: ADME
# Genome polyprotein = Genome polyprotein (Hepatitis C virus, UniProt Q2Q167); assay: disruption of hepatitis C core self-association – biochemical, TR-FRET, dose response (AID 2159); parameters: species or system Hepacivirus hominis;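 also: blocks dimerization of HCV core protein measured by TR-FRET between tagged core106 pairs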
# Bcl-2-related protein A1 [10] = target: T6, Bcl-2-related protein A1 (Mus musculus, UniProt Q07440); assay: displacement of Bid BH3 peptide from Bfl-1 – biochemical, fluorescence polarization, FITC-Bid, mouse, primary screen (AID 432)
# T6 sequence (Q07440 whole entry): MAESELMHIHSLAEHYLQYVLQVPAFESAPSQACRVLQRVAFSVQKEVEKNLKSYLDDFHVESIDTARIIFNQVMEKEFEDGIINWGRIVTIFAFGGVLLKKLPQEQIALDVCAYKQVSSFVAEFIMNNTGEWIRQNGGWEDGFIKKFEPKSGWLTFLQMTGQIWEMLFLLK
# SUMO-activating enzyme [11] = target: T7, SUMO-activating enzyme (Homo sapiens, UniProt Q9UBT2); assay: blockers of SAE1/SAE2–UBC9 SUMO transfer – biochemical, HTRF, uHTS, primary screen (AID 2006); assay type: protein-complex assay
# T7 sequence (Q9UBE0 whole entry): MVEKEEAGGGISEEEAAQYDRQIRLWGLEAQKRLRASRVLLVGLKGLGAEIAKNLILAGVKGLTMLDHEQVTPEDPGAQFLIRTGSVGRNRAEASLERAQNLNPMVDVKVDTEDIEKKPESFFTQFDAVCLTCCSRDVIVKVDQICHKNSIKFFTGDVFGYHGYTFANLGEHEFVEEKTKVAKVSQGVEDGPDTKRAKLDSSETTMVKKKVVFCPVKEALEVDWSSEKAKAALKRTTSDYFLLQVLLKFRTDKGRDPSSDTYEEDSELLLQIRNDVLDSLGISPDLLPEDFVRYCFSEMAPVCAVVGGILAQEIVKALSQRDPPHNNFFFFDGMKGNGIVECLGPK
# T7 sequence (Q9UBT2 whole entry): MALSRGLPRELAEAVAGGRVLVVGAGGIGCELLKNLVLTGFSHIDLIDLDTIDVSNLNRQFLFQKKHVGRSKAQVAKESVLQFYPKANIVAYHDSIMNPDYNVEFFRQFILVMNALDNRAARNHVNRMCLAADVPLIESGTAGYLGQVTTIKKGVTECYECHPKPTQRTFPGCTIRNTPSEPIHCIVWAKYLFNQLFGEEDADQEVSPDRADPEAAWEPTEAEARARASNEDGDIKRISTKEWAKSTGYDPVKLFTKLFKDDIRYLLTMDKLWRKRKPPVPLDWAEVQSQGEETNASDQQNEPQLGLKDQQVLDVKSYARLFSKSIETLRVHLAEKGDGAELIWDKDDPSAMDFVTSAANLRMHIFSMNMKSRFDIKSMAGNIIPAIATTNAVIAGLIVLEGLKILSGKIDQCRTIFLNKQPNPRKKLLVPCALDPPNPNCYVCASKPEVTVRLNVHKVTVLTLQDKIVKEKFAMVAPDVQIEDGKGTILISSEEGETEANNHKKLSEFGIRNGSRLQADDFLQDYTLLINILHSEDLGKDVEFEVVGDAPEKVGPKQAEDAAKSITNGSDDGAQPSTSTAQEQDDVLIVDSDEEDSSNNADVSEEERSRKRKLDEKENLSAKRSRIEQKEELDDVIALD
# SUMO-activating enzyme [12] = target: T7, SUMO-activating enzyme; assay: blockers of UBC9-mediated SUMO conjugation – biochemical, AlphaScreen, SUMOylation inhibitor project, confirmation (AID 2018); assay type: functional
# fMet-Leu-Phe receptor = fMet-Leu-Phe receptor (Homo sapiens, UniProt P21462); assay: formyl peptide receptor binders – dose response (AID 519); assay type: functional
# Bcl-2-related protein A1 [13] = target: T6, Bcl-2-related protein A1; assay: small-molecule antagonists of Bfl-1/BH3 interaction – biochemical, TR-FRET, mouse Bfl-1, confirmation (AID 621);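 also: TR-FRET binding of GST-Bfl-1 to FITC-labelled Bid peptide via terbium antibody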
# [14] = target: Ubiquitin carboxyl-terminal hydrolase BAP1 (Homo sapiens, UniProt Q92560); assay: inhibition of BAP1 ubiquitin hydrolase activity – biochemical, dose response (AID 714); assay type: functional
# Chain of Ubiquitin carboxyl-terminal hydrolase BAP1 (Q92560 whole entry): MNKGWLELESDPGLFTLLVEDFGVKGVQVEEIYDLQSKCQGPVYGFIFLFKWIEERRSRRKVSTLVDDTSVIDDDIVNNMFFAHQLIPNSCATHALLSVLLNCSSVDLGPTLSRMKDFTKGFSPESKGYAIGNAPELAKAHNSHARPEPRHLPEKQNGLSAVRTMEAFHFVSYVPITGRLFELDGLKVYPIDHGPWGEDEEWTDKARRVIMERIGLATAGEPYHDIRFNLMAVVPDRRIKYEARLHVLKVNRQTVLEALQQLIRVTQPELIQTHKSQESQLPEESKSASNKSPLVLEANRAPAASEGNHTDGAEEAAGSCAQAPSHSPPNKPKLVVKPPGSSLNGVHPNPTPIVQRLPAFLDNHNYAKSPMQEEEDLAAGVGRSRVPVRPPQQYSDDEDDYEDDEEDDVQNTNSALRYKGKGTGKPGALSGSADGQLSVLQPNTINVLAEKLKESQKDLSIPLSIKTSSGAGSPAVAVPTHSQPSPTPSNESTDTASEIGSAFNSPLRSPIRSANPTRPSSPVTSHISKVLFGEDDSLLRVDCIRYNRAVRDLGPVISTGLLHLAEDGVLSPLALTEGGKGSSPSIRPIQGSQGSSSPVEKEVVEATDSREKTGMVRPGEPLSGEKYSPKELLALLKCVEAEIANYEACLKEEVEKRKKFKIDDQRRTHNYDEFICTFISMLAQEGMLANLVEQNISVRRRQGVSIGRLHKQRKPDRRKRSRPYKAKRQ
# [15] = Luminescent dose response cell-based high throughput screening assay for inhibitors of the Janus kinase 2 mutant JAK2V617F. [Related pubchem assays: 1446 (Primary screen.), 1521 (Confirmation assay.), 1486 (Counter screen.)]; assay type: functional
# [16] = microbe, parasite or virus in culture; assay type: functional; conditions: Mycobacterium tuberculosis
# [17] = HEK-293T viability loss, compound-treated – cell-based, uHTS hits, cytotoxicity control for B/T-cell NF-kB inhibitor project, dose response (AID 489019); assay type: functional;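 also: IC50 reflects cytotoxicity as loss of cell viability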
# Paired box protein Pax-8 = Paired box protein Pax-8 (Homo sapiens, UniProt Q06710); assay: PAX8 transcriptional activity inhibition in RMG-I – RMG-I cells, luciferase, cherry-pick, dose response (AID 687027); assay type: functional, cell-based;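 also: luciferase reporter driven by Pax8 target thyroperoxidase promoter measured by SteadyGlo luminescence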
# Chain of Paired box protein Pax-8 (Q06710 whole entry): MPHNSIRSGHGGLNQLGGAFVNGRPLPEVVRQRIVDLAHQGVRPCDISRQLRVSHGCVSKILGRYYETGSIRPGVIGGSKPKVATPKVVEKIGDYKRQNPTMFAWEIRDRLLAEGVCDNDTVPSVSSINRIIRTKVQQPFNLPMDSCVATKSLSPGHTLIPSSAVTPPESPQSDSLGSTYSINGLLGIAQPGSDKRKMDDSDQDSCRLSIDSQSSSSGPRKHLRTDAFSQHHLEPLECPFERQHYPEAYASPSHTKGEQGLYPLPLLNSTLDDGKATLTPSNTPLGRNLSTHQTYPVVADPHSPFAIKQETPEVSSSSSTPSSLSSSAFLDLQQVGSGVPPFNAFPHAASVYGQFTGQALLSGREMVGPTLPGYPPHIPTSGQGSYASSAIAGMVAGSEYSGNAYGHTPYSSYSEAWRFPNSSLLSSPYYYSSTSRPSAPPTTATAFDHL
# Jurkat = assay: blockers of NF-kB activation in T cells – Jurkat, luciferase reporter, luminescence, B- and T-cell, dose response (AID 489004); assay type: functional, cell-based; conditions: Homo sapiens;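 also: NF-kB luciferase reporter Jurkat cells stimulated with PMA plus ionomycin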
# [18] = general cell-killing toxicity readout – plate reader, dry powder samples, cytotoxicity control for PAX8 inhibitor project, dose response (AID 743021); assay type: functional, cell-based
# 14-3-3 protein gamma = 14-3-3 protein gamma (Homo sapiens, UniProt P61981); assay: modulators of 14-3-3 gamma client binding – dose response (AID 711); assay type: functional
# Chain of 14-3-3 protein gamma (P61981 whole entry): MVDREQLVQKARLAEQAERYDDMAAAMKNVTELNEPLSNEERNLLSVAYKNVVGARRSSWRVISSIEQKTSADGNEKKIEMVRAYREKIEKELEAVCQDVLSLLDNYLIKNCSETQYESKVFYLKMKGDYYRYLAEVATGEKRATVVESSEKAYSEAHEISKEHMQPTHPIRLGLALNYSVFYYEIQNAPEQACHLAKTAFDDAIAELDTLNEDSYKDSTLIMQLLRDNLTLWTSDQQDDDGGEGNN
# Chain of Photoreceptor-specific nuclear receptor (Q9Y5X4 whole entry): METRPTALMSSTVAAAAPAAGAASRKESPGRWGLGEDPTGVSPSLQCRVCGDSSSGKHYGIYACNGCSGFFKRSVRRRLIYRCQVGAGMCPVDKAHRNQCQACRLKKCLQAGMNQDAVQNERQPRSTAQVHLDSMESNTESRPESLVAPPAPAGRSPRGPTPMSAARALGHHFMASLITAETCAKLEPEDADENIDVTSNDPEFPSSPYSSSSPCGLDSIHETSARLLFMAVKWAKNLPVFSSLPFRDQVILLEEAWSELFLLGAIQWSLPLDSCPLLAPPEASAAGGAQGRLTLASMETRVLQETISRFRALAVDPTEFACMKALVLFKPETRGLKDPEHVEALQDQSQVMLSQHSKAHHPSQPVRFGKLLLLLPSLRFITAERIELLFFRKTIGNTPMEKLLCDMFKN
compound,measurement,setting,value
COc1ccc(N2CC(=O)C(c3nc(-c4ccccc4)cs3)=C2N)cc1,IC50,[1],13.4 µM (not active)
same,IC50,[2],24.7 µM (not active)
CCC(=O)Nc1c(C#N)c2nc3ccccc3nc2n1-c1ccc(C)cc1,IC50,[3],> 100 µM (not active)
Cc1ccc(-c2cc(O)[nH]n2)c(C)c1,EC50,Protein RecA,502 nM (active)
same,IC50,Leucine aminopeptidase,< 1 µM (active)
same,IC50,Procathepsin L,> 59.6 µM (not active)
same,IC50,Aspartyl aminopeptidase,> 73.5 µM (not active)
same,AC50,[4],2.53 µM (active)
O=Cc1ccc(OC2C=CC(C#Cc3ccccc3)OC2CO)cc1 (configuration not stated),AC50,Cytochrome P450 2C19,631 nM (inconclusive)
same,AC50,Cytochrome P450 3A4,3.98 µM (inconclusive)
O=C1NC(=S)NC(=O)C1=NNc1ccc(S(=O)(=O)N2CCc3ccccc32)cc1,EC50,[5],> 91.2 µM (inactive)
same,IC50,[6],8.57 µM (active)
same,IC50,[7],62.4 µM (active)
same,EC50,[8],> 91.2 µM (inactive)
same,CC50,Vero,> 20 µM (active)
same,EC50,[9],620 nM (active)
Cc1sccc1C1C(C#N)=C(N)SC(N)=C1C#N,IC50,Genome polyprotein,> 49.8 µM (not active)
Cc1ccccc1Nc1cc2ccccc2c(O)n1,EC50,Protein RecA,616 nM (active)
same,IC50,Bcl-2-related protein A1 [10],22.4 µM (active)
same,IC50,SUMO-activating enzyme [11],4.3 µM (active)
same,IC50,SUMO-activating enzyme [12],1.84 µM (active)
same,Ki,fMet-Leu-Phe receptor,> 66.7 µM (inactive)
same,AC50,[4],41.9 µM (inconclusive)
same,IC50,Bcl-2-related protein A1 [13],> 100 µM (not active)
Cc1sc(NC(=O)CSc2nnc(-c3ccccc3)o2)c(C#N)c1C,IC50,[14],44.8 µM (not active)
Cc1ccc(Cn2ccs/c2=N\C(=O)CCl)cc1,IC50,[15],744 nM (active)
same,CC50,[16],299 nM (active)
same,IC50,[17],> 80 µM (inactive)
same,AC50,Paired box protein Pax-8,1.31 µM (active)
same,IC50,Jurkat,490 nM (active)
same,AC50,[18],3.73 µM (active)
CN1CCc2c(sc(/N=C/c3ccco3)c2C(N)=O)C1,IC50,14-3-3 protein gamma,> 50 µM (not active)
